Data reported in publication PMC10199925, “Cyclodextrin carboxylate improves the stability and activity of nisin in a wider range of application conditions” (NPJ Science of Food, 2023).
Where no end group is shown, it is not given here. [ ]: non-standard residue; d: D form. Dhb = C/C=C(\N)C(=O)O; Dha = C=C(N)C(=O)O

What was measured:
S. aureus [1] = assay: Live/dead bacterial double stain fluorescence intensity; type: cell-based; conditions: complexes at their MIC levels, result in words
Description: (§1) After confirming the antibacterial activity of nisin-SACD complexes, the MIC of nisin-SACD complexes was further measured by the broth microdilution method as reported by Li et al.. […] The initial solutions were then serially diluted until the concentration of them reached 3.125 µg/mL, 0.3125 mg/mL, 0.3125 mg/mL, and 0.3125 mg/mL, respectively. 100 µL of the samples at different concentrations were then cultured with 100 µL S. aureus dilutions containing 10^6 CFU bacteria in 96-well plates. The plates were incubated at 37 °C for 24 h. […] S aureus treated with nisin-SACD and HSS-nisin-SACD at MIC were further stained using a live/dead bacterial double stain kit (LMAI Bio, China), and the number of the total bacteria and dead bacteria could be represented by the fluorescence intensity value directly. Note there is no statistical relationship between the fluorescence intensity of the total bacteria and the dead bacteria, since they are stained by two different fluorescent dyes.

[2] = Thermogravimetric analysis (TG/dTG); type: physicochemical; conditions: dry powder, N2 50 mL/min, 10 °C/min, 30 to 600 °C
Description: The thermal behavior of the nisin-SACD complexes was evaluated using a thermogravimetric (TG) analysis system (TGA2, Mettler–Toledo, Schwerzenbach, Switzerland) under N2 (50 mL/min) at a 10 °C/min heating rate over a temperature range from 30 to 600 °C.

S. aureus (ATCC 6538) = assay: Antibacterial activity by optical density (OD600) of bacterial culture; type: cell-based
Description: The antimicrobial activities of the samples were determined using S. aureus (ATCC 6538) as a representative Gram-positive bacterium. The optical density (OD) was used to assess the antibacterial activity of the nisin and the nisin-SACD complexes[41],[42]. The bacteria were precultured on Luria-Bertani media at 37 °C for 24 h to obtain seed cultures. These seed cultures were then diluted to 10^6 CFU using Luria-Bertani media. […] A bacteria culture containing no sample was used as a blank control group. After incubating at 37 °C for 24 h, the growth of bacteria in the culture media was determined by recording the OD at 600 nm (OD600) using an UV-visible spectrophotometer (UV–1800PC, Mapada, China).

S. aureus [3] = assay: MIC by broth microdilution; type: cell-based; conditions: nisin 3.125-400 µg/mL, SACD 0.3125-40 mg/mL, 37 °C, 24 h, result in words
Description: as §1

S. aureus [4] = conditions: pure SACD at a relatively high dose; result in words; cited from earlier work
Text: S. aureus is commonly used as model Gram-positive bacteria to predict the antibacterial effects of the bacteriostatic agent. Meanwhile, it is a significant cause of foodborne illness leading to gastroenteritis, diarrhea, and vomiting. Foods susceptible to S. aureus intoxication including meat, egg, and dairy products. It is known that nisin can deactivate bacteria by adsorbing to the cell membrane, disrupting the cell membrane, and promoting the loss of essential int ...

Substance | total and dead bacteria (fluorescence intensity) in comparison to the untreated group (S. aureus [1]) | maximum decomposition peak temperature (dTG) [2] | weight loss at the end of heating (TG) [2] | OD600 value of the bacterial suspension after treatment (S. aureus (ATCC 6538); 1 mg nisin or 50 mg nisin-SACD (containing 1 mg nisin) in 10 mL culture (10^6 CFU), LB media, 37 °C, 24 h, blank OD600 1.23, n = 3) | fold decrease of OD600 versus untreated culture (S. aureus (ATCC 6538); as for OD600, relative to blank 1.23) | antibacterial effects at the setting concentration range (MIC test) (S. aureus [3]) | antibacterial activity against S. aureus (S. aureus [4])
Nisin (I[Dhb]SI[Dha]LCTPGCKTGALMGCNMKTATCHCSIHV[Dha]K; thioether (positions not given here); not fully specified (residues 3, 8, 13, 23, 25, bridges); UniProt P13068 24-57, looked up) [natural bacteriocin, small peptide of 34 amino acid residues produced by Lactococcus lactis; purchased from Aladdin] | Certain degree of inhibition on bacteria proliferation | 333 °C | < 7% | 0.46 | 2.7 fold | no significant antibacterial effects | –
succinic acid-β-cyclodextrin [SACD] | Certain degree of inhibition on bacteria proliferation | – | – | – | – | no significant antibacterial effects | did show antibacterial activity
